# Test results from PubChem BioAssay (NCI).
# Where “and” joins values, the source holds several entries; their conditions need not be identical. Identical values can stand only once.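 Each compound was tested at five concentrations against cells in 96-well plates for 48 hours. GI50 marks 50% less growth. TGI: concentration producing complete growth inhibition.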
# Tests used:
# Assay in all cases: NCI anticancer screen, dose series, 48 h
# [1] = system: MOLT-4 leukemia
# [2] = system: HOP-62 NSCLC
# [3] = system: COLO 205 colon
# [4] = system: OVCAR-4 ovarian
# [5] = system: A498 renal
# [6] = system: NCI-H226 lung
# [7] = system: SK-MEL-28 melanoma
# [8] = system: IGROV1 ovarian
# [9] = system: NCI-H460 lung
# [10] = system: RPMI-8226 leukemia
SMILES,TGI [1],TGI [2],TGI [3],TGI [4],TGI [5] [µM],TGI [6] [µM],TGI [7],TGI [8] [µM],TGI [9],TGI [10],GI50 [1],GI50 [2],GI50 [3],GI50 [4],GI50 [5] [µM],GI50 [7],GI50 [8] [µM],GI50 [9],GI50 [6] [µM],GI50 [10] [µM]
C/C(=C\c1ccccc1)C(O)S(=O)(=O)O (configuration not stated),> 100 µM,> 100 µM,> 100 µM,> 100 µM,> 100,> 100,> 100 µM,> 100,> 100 µM,> 100 µM,,,,,,,,,,
Cc1cc(Cl)ccc1N1C(=O)C(=O)C(c2nc3ccccc3s2)/C(=N\NC(=O)c2ccccc2O)C1=O (configuration not stated),> 21 µM,> 100 µM,> 100 µM,> 100 µM,> 100,> 100,> 100 µM,> 100,> 100 µM,> 100 µM,,,,,,,,,,
COc1cc(C(C)c2cc3c(cc2OCCOCCOc2cc4c(cc2C(C)c2cc(OC)c(OC)c(OC)c2)OCO4)OCO3)cc(OC)c1OC (configuration not stated),> 100 µM,> 100 µM,> 100 µM,> 100 µM,> 100,> 10,> 100 µM,> 100,> 100 µM,> 100 µM,> 100 µM,> 100 µM,> 100 µM,> 100 µM,> 100,> 100 µM,> 100,> 100 µM,,
NCC(=O)OCN1C(=O)C2C3C=CC(C2C1=O)C1C2C(=O)N(COC(=O)CN)C(=O)C2C31 (configuration not stated),69.8 µM and 42.2 µM,> 100 µM,36.4 µM and 32.2 µM,39.1 µM and 55.4 µM,> 100,> 100,35.3 µM and 40.8 µM,> 100,35.8 µM and 34.3 µM,72.5 µM and 59.7 µM,,,,,,,,,,
CC(C)(C)OC(=O)N(CCCn1c2c(c3ccccc3c1=O)C(=O)c1ccccc1-2)CCN(CCCn1c2c(c3ccccc3c1=O)C(=O)c1ccccc1-2)C(=O)OC(C)(C)C,16.1 µM,> 50 µM,> 50 µM,> 50 µM,> 50,> 50,> 50 µM,> 50,> 50 µM,> 50 µM,4 µM,19.8 µM,> 50 µM,> 50 µM,> 50,37 µM,21.8,27.3 µM,> 50,12.1
CNC1=C(Br)C(=O)C2=C(C1=O)C1C3=C(C(=O)C=CC3=O)C2c2ccccc21 (configuration not stated),,23.6 µM,35.4 µM,4.93 µM,40.7,14.4,> 24.7 µM,18,> 85.7 µM,> 31.4 µM,0.473 µM,7.68 µM,4.07 µM,1.76 µM,24.9,3.39 µM,4.69,18.6 µM,5.19,
CCOc1ccccc1N=C(NC(=O)CC)SC,> 100 µM,> 100 µM,> 10 µM,> 100 µM,> 100,> 100,> 100 µM,> 100,> 100 µM,> 100 µM,> 10 µM,> 100 µM,,> 10 µM,> 100,> 100 µM,> 100,> 100 µM,> 100,> 10
O=C1c2ccccc2C(=O)N1C/C=N/NS(=O)(=O)c1ccc(Cl)cc1,> 100 µM,> 100 µM,> 100 µM,> 100 µM,> 100,> 100,,> 100,> 100 µM,> 100 µM,,,,,,,,,,
S=C(S)NCCCn1ccnc1,> 100 µM,> 100 µM,> 100 µM,> 100 µM,> 100,> 100,> 100 µM,> 100,> 100 µM,> 100 µM,,,,,,,,,,
CC(C)(C)c1cc2c(OP(c3ccccc3)c3ccccc3)c(c1)Cc1cc(C(C)(C)C)cc(c1OP(c1ccccc1)c1ccccc1)Cc1cc(C(C)(C)C)cc(c1OP(c1ccccc1)c1ccccc1)Cc1cc(C(C)(C)C)cc(c1OP(c1ccccc1)c1ccccc1)C2,> 5 µM,> 50 µM,> 50 µM,> 50 µM,> 50,> 50,> 50 µM,> 50,> 50 µM,> 50 µM,,> 50 µM,> 50 µM,22 µM,> 50,> 50 µM,> 50,> 50 µM,> 50,35.9
CC(=O)OC1C(O)COC(Oc2c(C)c3c4c(c2O)[C@@H](C)CC[C@@H]4[C@@H](C)C[C@H]3C=C(C)C)C1O (some centres not stated),28.5 µM,32.5 µM,50.5 µM,47.1 µM,32.7,64.8,48.2 µM,> 100,47.1 µM,33.2 µM,4.89 µM,15.4 µM,21.5 µM,16.8 µM,16.6,22.3 µM,28.9,16.3 µM,24.5,13.3
COc1ccccc1NC(=O)N/C(N)=N/c1nc2ccccc2s1,> 100 µM,> 100 µM,> 100 µM,> 100 µM,> 100,> 100,> 100 µM,> 100,> 100 µM,> 72.4 µM,0.162 µM,0.111 µM,0.254 µM,0.218 µM,0.24,30.7 µM,0.0884,0.115 µM,0.949,0.163
COc1ccc(CNCCCN2C(=O)c3ccc4c5c(ccc(c35)C2=O)C(=O)N(CCCNCCCCNCCCN)C4=O)c(OC)c1OC,15.6 µM,8.97 µM,0.391 µM,3.08 µM,23.1,16.4,4.81 µM,12.5,7.03 µM,12.2 µM,1.53 µM,1.4 µM,0.194 µM,1.02 µM,5.5,1.89 µM,1.54,0.703 µM,2.11,2.7
O=C(Oc1ccccc1Cl)c1cccnc1Nc1ccnc(C(F)(F)F)c1,8.97 µM,37 µM,84.5 µM,95.8 µM,37.2,8.07,46.8 µM,30.4,> 100 µM,36.7 µM,2.52 µM,19 µM,26.6 µM,27.8 µM,17.3,20.4 µM,10.7,38.4 µM,2.61,12.4
COc1ccc(-c2ccc(=O)oc2-c2cc(OC)c(OC)c(OC)c2)cc1O,> 100 µM,> 100 µM,> 37.5 µM,> 100 µM,> 77.6,> 100,> 100 µM,,,0.956 µM,0.0512 µM,0.0199 µM,2.21 µM,0.283 µM,0.0315,1.64 µM,< 0.01,0.0244 µM,0.199,0.0251
Cc1cc2cc(Oc3ccnc(Nc4cccc(CS(=O)(=O)NCCN(C)C)c4)n3)ccc2[nH]1,7.06 µM,21.6 µM,16.9 µM,22.3 µM,4.19,22.1,25.1 µM,18.9,18.8 µM,11.5 µM,2.1 µM,7 µM,4.47 µM,9.11 µM,1.04,12.1 µM,4.51,4.74 µM,7.25,2.99
Cc1ccc2nc(NC(=O)CSC(=S)N3CCN(Cc4ccccc4)CC3)sc2c1,> 100 µM,> 100 µM,> 100 µM,> 100 µM,> 100,> 100,> 100 µM,> 100,> 100 µM,> 100 µM,> 100 µM,> 100 µM,> 100 µM,> 100 µM,> 100,> 100 µM,> 100,> 100 µM,> 100,75.9
CC(C)(C)c1ccc(NC(=O)c2cc(=O)c3ccccc3[nH]2)c(C(C)(C)C)c1O,7.59 µM,25.3 µM,10.5 µM,15.7 µM,19.7,28.9,26 µM,22.7,13.9 µM,14.1 µM,2.67 µM,12.5 µM,3.8 µM,4.18 µM,4.33,12.8 µM,10.4,3.72 µM,13.6,2.89
CC(C)[C@H](COC(C)(C)C)N=CN1CSc2ccccc21,> 100 µM,> 100 µM,39.4 µM,> 100 µM,> 100,> 100,> 100 µM,> 100,> 100 µM,54 µM,,,,,,,,,,
CCCCCCCCCCSS(=O)(=O)c1ccc(C)cc1,6.73 µM,40.1 µM,33.6 µM,32 µM,35,37.3,10.2 µM,33.7,23.9 µM,29.6 µM,,,,,,,,,,
COc1cc2c(c(OC)c1OC)C(=O)c1c-2n(CCCN)c(=O)c2cc([N+](=O)[O-])ccc12,19.1 µM,2.6 µM,6.3 µM,1.47 µM,2.99,40.1,3.97 µM,3.05,,3.32 µM,8.08 µM,0.958 µM,1.22 µM,0.372 µM,1.41,1.76 µM,1.43,0.562 µM,19,1.21
O=C(O/N=C1/CCC/C1=C\c1ccccc1)c1ccc(Cl)cc1,> 100 µM,> 89.6 µM,> 100 µM,58.7 µM,> 100,> 100,> 100 µM,> 65,> 31.6 µM,> 100 µM,,,,,,,,,,
CCOc1ccc2c(-c3ccnc(Nc4cccc(C(F)(F)F)c4)n3)cnn2n1,> 25 µM,> 25 µM,> 25 µM,> 25 µM,> 25,> 25,> 25 µM,> 25,> 25 µM,> 25 µM,> 25 µM,> 21 µM,> 25 µM,9.46 µM,8.2,> 25 µM,10.9,9.05 µM,> 25,> 25
CCCCCCCCCCCCCCCC[N+](C)(C)C,0.346 µM and 2.8 µM,0.54 µM and 3.07 µM,0.295 µM and 2.75 µM,1.03 µM and 5.95 µM,5.25,3.07,1.72 µM and 6.88 µM,0.359,0.412 µM and 2.81 µM,0.792 µM,0.157 µM and 1.17 µM,0.198 µM and 1.33 µM,0.16 µM and 1.19 µM,0.232 µM and 1.52 µM,1.96,0.482 µM and 2.24 µM,0.154,0.204 µM and 1.24 µM,1.13,0.142
CN(C)c1ccc2c(SCC(=O)OCC(=O)[C@@]3(O)CC[C@H]4[C@@H]5CCC6=CC(=O)C=C[C@]6(C)[C@H]5C(=O)C[C@@]43C)c3ccc(N(C)C)cc3nc2c1,> 100 µM,> 100 µM,> 100 µM,> 72.1 µM,> 96.2,47.5,> 76.1 µM,> 100,> 45.7 µM,82.5 µM,,,,,,,,,,
O=C(CN1C(=O)c2ccccc2C1=O)OC1C=CCCC1 (configuration not stated),> 100 µM,> 100 µM,> 100 µM,> 100 µM,> 100,> 100,> 100 µM,> 100,> 100 µM,> 100 µM,,,,,,,,,,
COc1ccc2c(CCNS(=O)(=O)c3ccccc3)c(C(C)=O)[nH]c2c1[N+](=O)[O-],> 100 µM,> 100 µM,> 100 µM,> 100 µM,> 100,> 100,,> 100,> 100 µM,> 100 µM,,,,,,,,,,
O=C(O)c1cc2c3c(c1)[C@H]1C=CC[C@H]1CN3CC1CC=CC21 (some centres not stated),> 100 µM,> 100 µM,> 100 µM,> 100 µM,> 100,> 100,,> 100,> 100 µM,> 100 µM,,,,,,,,,,
[O-]c1c(-c2ccccc2)[se]c(-c2ccccc2)[n+]1-c1ccccc1,92.9 µM,,31.3 µM,5.95 µM,26.7,9.11,22.7 µM,13.6,38.7 µM,> 100 µM,,,,,,,,,,
